Patent publication US10168342B2, “Lipid probes and uses thereof” (THE SCRIPPS RESEARCH INSTITUTE, priority 2015, dated 2019)

Key:
Assay in all cases: isoTOP-ABPP mapping of AEA-DA-modified peptides in Neuro2a cells
Type in all cases: cell-based
[1] = biological target: T1, AEA-DA-modified peptides in Neuro2a cells (Mus musculus, UniProt O35459); details: probe 100 μM, 12 replicates
T1 construct: endogenous in cells; host or cells: Neuro2a

[2] = biological target: T2, AEA-DA-modified peptides in Neuro2a cells (Mus musculus, UniProt P15626); details: AEA-DA-modified peptide GSTM2 P15626 109-123, SEQ ID NO 45; probe 100 μM, 12 replicates
T2 construct: endogenous in cells; host or cells: Neuro2a

[3] = biological target: T3, AEA-DA-modified peptides in Neuro2a cells (Mus musculus, UniProt P20029); details: probe 100 μM, 12 replicates
T3 construct: endogenous in cells; host or cells: Neuro2a

[4] = biological target: T4, AEA-DA-modified peptides in Neuro2a cells (Mus musculus, UniProt P57780); details: AEA-DA-modified peptide ACTN4 P57780 839-855, SEQ ID NO 4; probe 100 μM, 12 replicates
T4 construct: endogenous in cells; host or cells: Neuro2a

[5] = biological target: T5, AEA-DA-modified peptides in Neuro2a cells (Mus musculus, UniProt P59325); details: AEA-DA-modified peptide EIF5 P59325 272-287, SEQ ID NO 36; probe 100 μM, 12 replicates
T5 construct: endogenous in cells; host or cells: Neuro2a

[6] = biological target: T6, AEA-DA-modified peptides in Neuro2a cells (Mus musculus, UniProt P62814); details: AEA-DA-modified peptide ATP6V1B2 P62814 68-82, SEQ ID NO 20; probe 100 μM, 12 replicates
T6 construct: endogenous in cells; host or cells: Neuro2a

[7] = biological target: T7, AEA-DA-modified peptides in Neuro2a cells (Mus musculus, UniProt Q91V01); details: AEA-DA-modified peptide LPCAT3 Q91V01 18-31, SEQ ID NO 58; probe 100 μM, 12 replicates
T7 construct: endogenous in cells; host or cells: Neuro2a

[8] = biological target: T8, AEA-DA-modified peptides in Neuro2a cells (Mus musculus, UniProt Q91YE6); details: AEA-DA-modified peptide IPO9 Q91YE6 777-788, SEQ ID NO 54; probe 100 μM, 12 replicates
T8 construct: endogenous in cells; host or cells: Neuro2a

[9] = biological target: T9, AEA-DA-modified peptides in Neuro2a cells (Mus musculus, UniProt Q99P72); details: AEA-DA-modified peptide RTN4 Q99P72 1045-106, SEQ ID NO 94; probe 100 μM, 12 replicates
T9 construct: endogenous in cells; host or cells: Neuro2a

[10] = biological target: T10, AEA-DA-modified peptides in Neuro2a cells (Mus musculus, UniProt Q9CQ45); details: AEA-DA-modified peptide NENF Q9CQ45 84-94, SEQ ID NO 68; probe 100 μM, 12 replicates
T10 construct: endogenous in cells; host or cells: Neuro2a

[11] = biological target: T11, AEA-DA-modified peptides in Neuro2a cells (Mus musculus, UniProt Q9D2R6); details: AEA-DA-modified peptide CCDC56 Q9D2R6 84-94, SEQ ID NO 22; probe 100 μM, 12 replicates
T11 construct: endogenous in cells; host or cells: Neuro2a
T11 sequence (Q9D2R6 whole entry): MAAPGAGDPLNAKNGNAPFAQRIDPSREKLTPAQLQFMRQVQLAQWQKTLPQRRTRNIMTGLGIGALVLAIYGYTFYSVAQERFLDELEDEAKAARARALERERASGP

T1 sequence (O35459 34-327): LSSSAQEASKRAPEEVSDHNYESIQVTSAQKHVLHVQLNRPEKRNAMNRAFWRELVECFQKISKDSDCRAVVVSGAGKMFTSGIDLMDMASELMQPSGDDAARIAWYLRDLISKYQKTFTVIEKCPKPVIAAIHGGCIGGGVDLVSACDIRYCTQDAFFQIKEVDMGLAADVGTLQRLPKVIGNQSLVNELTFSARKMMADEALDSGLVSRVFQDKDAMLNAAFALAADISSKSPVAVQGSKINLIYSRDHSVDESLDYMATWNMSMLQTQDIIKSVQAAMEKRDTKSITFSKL
T3 sequence (P20029 20-655): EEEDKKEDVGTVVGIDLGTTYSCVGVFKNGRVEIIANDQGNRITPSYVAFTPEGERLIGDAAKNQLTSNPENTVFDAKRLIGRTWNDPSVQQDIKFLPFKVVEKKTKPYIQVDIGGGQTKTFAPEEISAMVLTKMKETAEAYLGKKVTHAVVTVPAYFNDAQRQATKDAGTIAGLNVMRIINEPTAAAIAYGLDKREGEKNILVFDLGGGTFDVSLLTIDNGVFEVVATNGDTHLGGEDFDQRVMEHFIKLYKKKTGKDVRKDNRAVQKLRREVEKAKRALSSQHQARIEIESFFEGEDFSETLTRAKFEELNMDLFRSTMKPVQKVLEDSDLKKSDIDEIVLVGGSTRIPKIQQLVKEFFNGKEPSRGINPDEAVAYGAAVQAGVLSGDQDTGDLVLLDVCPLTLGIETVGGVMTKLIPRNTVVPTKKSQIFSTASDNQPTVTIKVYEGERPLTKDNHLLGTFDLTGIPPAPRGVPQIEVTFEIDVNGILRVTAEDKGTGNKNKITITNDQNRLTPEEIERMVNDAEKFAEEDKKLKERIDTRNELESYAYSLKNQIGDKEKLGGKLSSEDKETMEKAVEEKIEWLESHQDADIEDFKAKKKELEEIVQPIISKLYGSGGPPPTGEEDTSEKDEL
T7 sequence (Q91V01 whole entry): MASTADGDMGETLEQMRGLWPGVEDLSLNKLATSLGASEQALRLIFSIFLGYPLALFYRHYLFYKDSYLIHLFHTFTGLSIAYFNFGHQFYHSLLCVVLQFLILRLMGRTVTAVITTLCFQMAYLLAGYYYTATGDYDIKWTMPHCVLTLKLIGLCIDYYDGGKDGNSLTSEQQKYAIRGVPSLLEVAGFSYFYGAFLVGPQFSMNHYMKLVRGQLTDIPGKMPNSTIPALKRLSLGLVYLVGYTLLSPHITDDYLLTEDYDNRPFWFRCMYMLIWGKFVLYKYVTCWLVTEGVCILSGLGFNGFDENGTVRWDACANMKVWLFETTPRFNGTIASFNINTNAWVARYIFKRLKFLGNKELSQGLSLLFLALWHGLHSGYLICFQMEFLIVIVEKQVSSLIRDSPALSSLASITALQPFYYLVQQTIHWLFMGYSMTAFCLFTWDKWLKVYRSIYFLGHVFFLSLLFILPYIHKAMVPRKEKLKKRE
T5 sequence (P59325 whole entry): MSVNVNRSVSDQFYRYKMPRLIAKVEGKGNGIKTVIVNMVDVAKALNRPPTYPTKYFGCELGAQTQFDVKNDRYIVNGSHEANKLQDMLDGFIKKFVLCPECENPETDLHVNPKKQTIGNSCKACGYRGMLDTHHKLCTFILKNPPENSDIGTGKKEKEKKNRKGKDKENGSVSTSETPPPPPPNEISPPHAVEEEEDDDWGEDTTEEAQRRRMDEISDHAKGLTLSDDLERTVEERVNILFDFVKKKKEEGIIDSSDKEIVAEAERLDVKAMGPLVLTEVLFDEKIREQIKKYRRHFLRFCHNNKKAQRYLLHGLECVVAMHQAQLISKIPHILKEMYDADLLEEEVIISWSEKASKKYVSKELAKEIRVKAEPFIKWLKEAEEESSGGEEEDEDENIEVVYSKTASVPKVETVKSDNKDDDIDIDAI
T8 sequence (Q91YE6 whole entry): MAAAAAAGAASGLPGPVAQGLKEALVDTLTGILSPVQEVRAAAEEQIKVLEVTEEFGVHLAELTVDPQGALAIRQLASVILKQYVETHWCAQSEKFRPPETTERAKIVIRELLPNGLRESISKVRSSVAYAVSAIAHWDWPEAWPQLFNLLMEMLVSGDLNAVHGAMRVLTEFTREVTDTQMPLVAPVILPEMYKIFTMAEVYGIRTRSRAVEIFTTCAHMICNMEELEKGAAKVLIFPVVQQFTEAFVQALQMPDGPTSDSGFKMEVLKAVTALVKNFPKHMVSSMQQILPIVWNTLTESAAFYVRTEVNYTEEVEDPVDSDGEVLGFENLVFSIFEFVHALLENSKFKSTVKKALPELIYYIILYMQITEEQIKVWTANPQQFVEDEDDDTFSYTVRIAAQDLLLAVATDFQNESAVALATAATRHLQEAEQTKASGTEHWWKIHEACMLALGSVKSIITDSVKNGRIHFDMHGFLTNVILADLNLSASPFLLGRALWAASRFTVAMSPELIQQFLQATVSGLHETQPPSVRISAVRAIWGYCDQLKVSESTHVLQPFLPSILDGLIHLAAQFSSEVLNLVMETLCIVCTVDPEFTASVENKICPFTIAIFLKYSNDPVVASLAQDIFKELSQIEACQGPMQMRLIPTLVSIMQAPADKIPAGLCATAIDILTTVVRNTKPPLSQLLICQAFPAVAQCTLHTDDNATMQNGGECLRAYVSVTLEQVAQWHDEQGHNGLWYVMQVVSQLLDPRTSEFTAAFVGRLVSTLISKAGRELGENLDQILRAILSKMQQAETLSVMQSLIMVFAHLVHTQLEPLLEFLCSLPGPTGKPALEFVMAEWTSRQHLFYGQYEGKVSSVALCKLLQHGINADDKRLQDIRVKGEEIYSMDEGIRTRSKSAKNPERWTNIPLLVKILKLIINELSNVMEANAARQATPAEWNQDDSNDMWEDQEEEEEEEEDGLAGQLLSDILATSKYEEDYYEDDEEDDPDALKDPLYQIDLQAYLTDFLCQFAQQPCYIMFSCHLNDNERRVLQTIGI
T10 sequence (Q9CQ45 31-171): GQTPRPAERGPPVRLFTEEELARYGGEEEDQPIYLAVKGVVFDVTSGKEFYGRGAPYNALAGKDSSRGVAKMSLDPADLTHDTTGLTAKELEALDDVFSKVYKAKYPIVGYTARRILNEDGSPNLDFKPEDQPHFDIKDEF
T6 sequence (P62814 whole entry): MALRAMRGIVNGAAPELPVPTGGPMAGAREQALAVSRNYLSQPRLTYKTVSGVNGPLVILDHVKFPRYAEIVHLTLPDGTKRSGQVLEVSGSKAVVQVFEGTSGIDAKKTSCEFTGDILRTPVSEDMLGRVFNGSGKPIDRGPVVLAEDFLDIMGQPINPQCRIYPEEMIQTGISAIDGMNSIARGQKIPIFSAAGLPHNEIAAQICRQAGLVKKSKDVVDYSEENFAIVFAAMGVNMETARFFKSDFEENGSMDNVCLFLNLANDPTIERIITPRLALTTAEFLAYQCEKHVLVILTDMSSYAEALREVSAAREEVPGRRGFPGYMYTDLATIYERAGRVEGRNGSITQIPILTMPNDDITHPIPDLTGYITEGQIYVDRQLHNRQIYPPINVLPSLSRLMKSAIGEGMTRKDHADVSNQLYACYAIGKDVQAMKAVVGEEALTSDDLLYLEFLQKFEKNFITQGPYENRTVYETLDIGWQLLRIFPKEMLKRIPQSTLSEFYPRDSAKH
T4 sequence (P57780 whole entry): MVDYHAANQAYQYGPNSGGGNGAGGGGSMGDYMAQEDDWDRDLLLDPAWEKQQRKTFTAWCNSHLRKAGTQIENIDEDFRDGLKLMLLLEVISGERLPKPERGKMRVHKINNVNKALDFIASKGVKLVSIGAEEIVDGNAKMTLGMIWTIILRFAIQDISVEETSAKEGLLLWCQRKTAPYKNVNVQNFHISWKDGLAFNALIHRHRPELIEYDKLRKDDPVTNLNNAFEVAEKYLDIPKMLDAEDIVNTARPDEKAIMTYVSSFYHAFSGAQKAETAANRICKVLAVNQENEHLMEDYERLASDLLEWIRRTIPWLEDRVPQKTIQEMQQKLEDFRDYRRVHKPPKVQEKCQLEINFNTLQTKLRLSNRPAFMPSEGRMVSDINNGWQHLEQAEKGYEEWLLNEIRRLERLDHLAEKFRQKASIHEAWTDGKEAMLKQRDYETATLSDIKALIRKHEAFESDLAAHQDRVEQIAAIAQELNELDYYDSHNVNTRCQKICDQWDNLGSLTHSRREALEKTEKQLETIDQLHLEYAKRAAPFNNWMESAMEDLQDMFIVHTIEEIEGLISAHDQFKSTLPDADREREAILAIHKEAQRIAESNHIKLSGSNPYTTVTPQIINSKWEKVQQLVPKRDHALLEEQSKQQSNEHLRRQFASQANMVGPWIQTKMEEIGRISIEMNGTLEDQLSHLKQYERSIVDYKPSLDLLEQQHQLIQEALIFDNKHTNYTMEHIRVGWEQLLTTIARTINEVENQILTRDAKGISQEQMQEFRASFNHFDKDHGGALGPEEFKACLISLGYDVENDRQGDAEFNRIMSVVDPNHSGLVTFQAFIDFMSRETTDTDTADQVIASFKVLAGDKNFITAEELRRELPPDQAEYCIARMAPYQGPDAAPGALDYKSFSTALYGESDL
T2 sequence (P15626 whole entry): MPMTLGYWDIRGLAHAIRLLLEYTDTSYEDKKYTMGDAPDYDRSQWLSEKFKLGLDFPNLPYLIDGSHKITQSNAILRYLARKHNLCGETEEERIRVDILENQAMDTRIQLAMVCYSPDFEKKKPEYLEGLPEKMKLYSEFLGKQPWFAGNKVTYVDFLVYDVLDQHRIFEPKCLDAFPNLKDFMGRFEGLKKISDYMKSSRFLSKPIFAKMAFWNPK

For `C#CCCCC1(CC/C=C\C/C=C\C/C=C\CCCC(=O)NCCO)N=N1` [AEA-DA, (5Z,8Z,11Z)-N-(2-hydroxyethyl)-14-(3-(pent-4-yn-1-yl)-3H-diazirin-3-yl)tetradeca-5,8,11-trienamide], which Times observed ([1]; AEA-DA-modified peptide ECH1 O35459 185-211, SEQ ID NO 32) is on record?
Its Times observed is 4.

And the Times observed ([1]; AEA-DA-modified peptide ECH1 O35459 196-211, SEQ ID NO 33)?
Its Times observed is 8.

And the Times observed [2]?
Its Times observed is 5.

And the Times observed ([3]; AEA-DA-modified peptide HSPA5 P20029 466-476, SEQ ID NO 52)?
The Times observed was 8.

What about the Times observed ([3]; AEA-DA-modified peptide HSPA5 P20029 635-656, SEQ ID NO 53) of the same compound?
The Times observed was 4.

And the Times observed [4]?
The Times observed was 2.

And the Times observed [5]?
The Times observed was 12.

And the Times observed [6]?
The Times observed was 3.

And the Times observed [7]?
Its Times observed is 2.

What about the Times observed [8] of the same compound?
The Times observed was 3.

What about the Times observed [9] of the same compound?
The Times observed was 7.

What about the Times observed [10] of the same compound?
The Times observed was 4.

And the Times observed [11]?
Its Times observed is 2.
